Test results as given in ChEMBL document CHEMBL5465560, “Selectivity Literature for EUbOPEN Chemogenomic Library” (2024).

How the values were obtained:
[1] = target: Dual specificity mitogen-activated protein kinase kinase 1 (Homo sapiens, UniProt Q02750); assay: Selectivity interaction (ActivX KiNativ screen (kinase selectivity in THP-1 cell lysates)) EUB0000639a MAP2K1; assay type: subcellular; settings: lysate, at 5 µM
[2] = target: Tyrosine-protein kinase Lyn (Homo sapiens, UniProt P07948); assay: Selectivity interaction (KinomeScan (DiscoverX)) EUB0000695a LYN; settings: at 100 nM
[3] = target: T1, Serine/threonine-protein kinase DCLK1 (Homo sapiens) (UniProt O15075); settings: at 10 µM
T1 sequence (whole entry): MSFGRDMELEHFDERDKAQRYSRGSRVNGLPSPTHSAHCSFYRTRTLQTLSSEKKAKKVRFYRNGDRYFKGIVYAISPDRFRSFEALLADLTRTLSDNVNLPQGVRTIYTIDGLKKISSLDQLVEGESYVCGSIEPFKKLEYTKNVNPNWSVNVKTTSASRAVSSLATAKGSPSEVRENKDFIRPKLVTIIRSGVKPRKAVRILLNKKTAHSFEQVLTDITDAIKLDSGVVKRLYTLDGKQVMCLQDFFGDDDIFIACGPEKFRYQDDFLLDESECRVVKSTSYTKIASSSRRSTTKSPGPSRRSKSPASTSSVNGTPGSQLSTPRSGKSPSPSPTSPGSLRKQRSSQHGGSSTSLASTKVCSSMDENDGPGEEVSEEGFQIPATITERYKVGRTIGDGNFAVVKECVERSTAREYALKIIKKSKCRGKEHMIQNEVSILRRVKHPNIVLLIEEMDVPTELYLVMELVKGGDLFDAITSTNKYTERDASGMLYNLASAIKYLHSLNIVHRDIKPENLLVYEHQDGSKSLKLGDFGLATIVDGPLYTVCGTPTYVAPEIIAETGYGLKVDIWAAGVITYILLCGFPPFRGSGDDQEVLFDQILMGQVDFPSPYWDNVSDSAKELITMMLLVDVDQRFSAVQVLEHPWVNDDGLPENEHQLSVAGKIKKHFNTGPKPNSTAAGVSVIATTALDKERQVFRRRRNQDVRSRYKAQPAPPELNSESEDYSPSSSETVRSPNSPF

[4] = target: G protein-coupled receptor kinase 4 (Homo sapiens) (UniProt P32298); assay: Selectivity interaction (KinomeScan (DiscoverX)) EUB0001079a GRK4; settings: at 1 µM
[5] = target: CDK4/Cyclin D3 (Homo sapiens) (UniProt P11802+P30281); assay: (§1) Selectivity interaction (ProQinase) EUB0000171b CDK4; assay type: protein-complex assay
[6] = target: Cyclin-dependent kinase 4/cyclin D1 (Homo sapiens) (UniProt P11802+P24385); assay: as §1; assay type: protein-complex assay
[7] = target: Cyclin-dependent kinase-like 1 (Homo sapiens) (UniProt Q00532); assay: Selectivity interaction (KinomeScan (DiscoverX)) EUB0000045b CDKL1
[8] = target: T2, Mitogen-activated protein kinase kinase kinase 2 (Homo sapiens) (UniProt Q9Y2U5); assay: Selectivity interaction (KinomeScan (DiscoverX)) EUB0000045b MAP3K2
T2 sequence (whole entry): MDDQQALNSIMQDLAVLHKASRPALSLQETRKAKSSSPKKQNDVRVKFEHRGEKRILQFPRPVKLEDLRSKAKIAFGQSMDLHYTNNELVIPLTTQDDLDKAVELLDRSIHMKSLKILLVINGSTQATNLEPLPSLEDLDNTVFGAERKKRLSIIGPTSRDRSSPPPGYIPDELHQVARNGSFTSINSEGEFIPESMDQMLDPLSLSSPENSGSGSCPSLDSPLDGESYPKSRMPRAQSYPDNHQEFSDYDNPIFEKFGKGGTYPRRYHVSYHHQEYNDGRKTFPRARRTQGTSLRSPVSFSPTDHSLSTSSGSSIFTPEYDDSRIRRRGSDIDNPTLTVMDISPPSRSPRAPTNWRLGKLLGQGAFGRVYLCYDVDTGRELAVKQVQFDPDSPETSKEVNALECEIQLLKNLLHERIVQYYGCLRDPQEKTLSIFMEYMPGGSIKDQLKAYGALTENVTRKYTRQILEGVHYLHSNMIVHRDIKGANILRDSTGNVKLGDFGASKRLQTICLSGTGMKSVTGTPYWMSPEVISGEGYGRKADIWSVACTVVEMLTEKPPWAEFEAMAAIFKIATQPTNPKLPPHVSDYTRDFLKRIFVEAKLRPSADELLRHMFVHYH

[9] = target: Ephrin type-A receptor 7 (Homo sapiens) (UniProt Q15375); assay: Selectivity interaction (Kinase panel (DSF assay)) EUB0001559a EPHA7
[10] = target: T3, Serine/threonine-protein kinase haspin (Homo sapiens) (UniProt Q8TF76); assay: Selectivity interaction (Kinase panel (DSF assay)) EUB0001559a GSG2
T3 sequence (whole entry): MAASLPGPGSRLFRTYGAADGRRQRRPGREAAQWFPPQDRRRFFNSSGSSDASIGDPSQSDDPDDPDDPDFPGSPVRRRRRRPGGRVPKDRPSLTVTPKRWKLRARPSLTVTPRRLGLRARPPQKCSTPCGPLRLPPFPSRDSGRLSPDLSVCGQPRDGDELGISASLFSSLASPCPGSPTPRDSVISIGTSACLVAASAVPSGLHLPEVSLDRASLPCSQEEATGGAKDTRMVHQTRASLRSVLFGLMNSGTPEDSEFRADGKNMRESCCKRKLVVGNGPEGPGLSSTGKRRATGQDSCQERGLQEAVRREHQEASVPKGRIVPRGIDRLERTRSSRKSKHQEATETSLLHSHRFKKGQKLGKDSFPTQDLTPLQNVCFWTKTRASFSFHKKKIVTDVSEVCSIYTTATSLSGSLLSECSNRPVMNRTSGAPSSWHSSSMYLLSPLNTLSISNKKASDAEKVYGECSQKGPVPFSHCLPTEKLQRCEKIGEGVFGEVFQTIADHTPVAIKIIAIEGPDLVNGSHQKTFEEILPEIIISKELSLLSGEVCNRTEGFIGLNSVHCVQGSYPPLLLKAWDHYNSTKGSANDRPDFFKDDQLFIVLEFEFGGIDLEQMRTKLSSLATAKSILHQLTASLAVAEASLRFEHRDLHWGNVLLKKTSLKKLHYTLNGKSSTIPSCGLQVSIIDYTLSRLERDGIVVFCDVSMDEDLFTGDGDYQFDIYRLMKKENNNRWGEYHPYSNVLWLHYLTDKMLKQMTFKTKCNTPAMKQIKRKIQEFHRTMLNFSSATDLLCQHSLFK

[11] = target: Tyrosine-protein kinase JAK1 (Homo sapiens, UniProt P23458); assay: Selectivity interaction (KinomeScan (DiscoverX)) EUB0000607a JAK1; settings: at 10 µM
[12] = target: Receptor-type tyrosine-protein kinase FLT3 (Homo sapiens) (UniProt P36888); assay: Selectivity interaction (KinomeScan (DiscoverX)) EUB0000666a FLT3; settings: at 10 µM
Chain of Receptor-type tyrosine-protein kinase FLT3 (Homo sapiens) (P36888 whole entry): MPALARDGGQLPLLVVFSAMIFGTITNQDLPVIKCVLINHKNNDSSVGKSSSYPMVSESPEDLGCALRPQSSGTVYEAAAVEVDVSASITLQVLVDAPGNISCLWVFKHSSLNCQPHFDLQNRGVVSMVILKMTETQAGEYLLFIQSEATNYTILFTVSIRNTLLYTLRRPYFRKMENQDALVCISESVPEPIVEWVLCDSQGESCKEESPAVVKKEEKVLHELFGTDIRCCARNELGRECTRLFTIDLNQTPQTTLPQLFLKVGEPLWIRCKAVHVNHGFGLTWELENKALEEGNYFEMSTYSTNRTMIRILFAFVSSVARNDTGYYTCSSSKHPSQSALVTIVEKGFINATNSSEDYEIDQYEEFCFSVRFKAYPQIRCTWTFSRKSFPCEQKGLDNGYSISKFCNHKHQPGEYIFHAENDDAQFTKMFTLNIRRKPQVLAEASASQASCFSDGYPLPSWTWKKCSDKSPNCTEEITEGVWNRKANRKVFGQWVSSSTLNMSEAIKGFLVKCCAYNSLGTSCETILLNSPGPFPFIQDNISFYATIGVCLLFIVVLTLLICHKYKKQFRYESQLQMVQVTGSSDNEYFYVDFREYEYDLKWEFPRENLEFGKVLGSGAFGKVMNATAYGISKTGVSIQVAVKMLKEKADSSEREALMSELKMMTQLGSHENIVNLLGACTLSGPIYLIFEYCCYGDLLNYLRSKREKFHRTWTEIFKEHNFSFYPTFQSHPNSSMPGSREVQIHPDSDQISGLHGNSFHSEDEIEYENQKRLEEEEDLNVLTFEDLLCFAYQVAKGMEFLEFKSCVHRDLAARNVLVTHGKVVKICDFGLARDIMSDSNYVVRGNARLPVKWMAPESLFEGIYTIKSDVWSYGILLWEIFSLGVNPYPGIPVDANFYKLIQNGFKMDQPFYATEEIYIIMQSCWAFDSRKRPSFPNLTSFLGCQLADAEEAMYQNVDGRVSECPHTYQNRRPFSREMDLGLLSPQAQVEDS

Chain of Cyclin-dependent kinase-like 1 (Homo sapiens) (Q00532 whole entry): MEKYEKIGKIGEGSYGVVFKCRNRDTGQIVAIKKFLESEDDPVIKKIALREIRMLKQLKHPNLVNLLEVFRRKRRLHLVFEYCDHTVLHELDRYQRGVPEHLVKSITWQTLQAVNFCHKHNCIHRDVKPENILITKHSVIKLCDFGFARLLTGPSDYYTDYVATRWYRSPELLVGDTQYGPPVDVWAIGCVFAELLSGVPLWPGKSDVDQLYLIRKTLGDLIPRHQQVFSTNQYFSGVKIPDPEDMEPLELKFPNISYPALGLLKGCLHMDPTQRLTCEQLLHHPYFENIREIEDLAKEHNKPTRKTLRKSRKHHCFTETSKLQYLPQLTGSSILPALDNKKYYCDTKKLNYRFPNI
Chain of Dual specificity mitogen-activated protein kinase kinase 1 (Q02750 whole entry): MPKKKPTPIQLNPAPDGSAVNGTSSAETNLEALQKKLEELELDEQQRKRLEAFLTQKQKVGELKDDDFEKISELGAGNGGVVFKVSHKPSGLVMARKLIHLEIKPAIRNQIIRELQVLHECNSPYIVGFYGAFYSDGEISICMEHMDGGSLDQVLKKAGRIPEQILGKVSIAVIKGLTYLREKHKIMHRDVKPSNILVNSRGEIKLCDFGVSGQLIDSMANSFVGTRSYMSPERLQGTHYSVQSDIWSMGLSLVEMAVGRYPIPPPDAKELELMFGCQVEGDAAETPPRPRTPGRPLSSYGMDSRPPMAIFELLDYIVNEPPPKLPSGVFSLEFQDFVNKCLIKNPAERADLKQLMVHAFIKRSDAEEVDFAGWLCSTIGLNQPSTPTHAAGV
Chain of Ephrin type-A receptor 7 (Homo sapiens) (Q15375 28-998 limits assumed): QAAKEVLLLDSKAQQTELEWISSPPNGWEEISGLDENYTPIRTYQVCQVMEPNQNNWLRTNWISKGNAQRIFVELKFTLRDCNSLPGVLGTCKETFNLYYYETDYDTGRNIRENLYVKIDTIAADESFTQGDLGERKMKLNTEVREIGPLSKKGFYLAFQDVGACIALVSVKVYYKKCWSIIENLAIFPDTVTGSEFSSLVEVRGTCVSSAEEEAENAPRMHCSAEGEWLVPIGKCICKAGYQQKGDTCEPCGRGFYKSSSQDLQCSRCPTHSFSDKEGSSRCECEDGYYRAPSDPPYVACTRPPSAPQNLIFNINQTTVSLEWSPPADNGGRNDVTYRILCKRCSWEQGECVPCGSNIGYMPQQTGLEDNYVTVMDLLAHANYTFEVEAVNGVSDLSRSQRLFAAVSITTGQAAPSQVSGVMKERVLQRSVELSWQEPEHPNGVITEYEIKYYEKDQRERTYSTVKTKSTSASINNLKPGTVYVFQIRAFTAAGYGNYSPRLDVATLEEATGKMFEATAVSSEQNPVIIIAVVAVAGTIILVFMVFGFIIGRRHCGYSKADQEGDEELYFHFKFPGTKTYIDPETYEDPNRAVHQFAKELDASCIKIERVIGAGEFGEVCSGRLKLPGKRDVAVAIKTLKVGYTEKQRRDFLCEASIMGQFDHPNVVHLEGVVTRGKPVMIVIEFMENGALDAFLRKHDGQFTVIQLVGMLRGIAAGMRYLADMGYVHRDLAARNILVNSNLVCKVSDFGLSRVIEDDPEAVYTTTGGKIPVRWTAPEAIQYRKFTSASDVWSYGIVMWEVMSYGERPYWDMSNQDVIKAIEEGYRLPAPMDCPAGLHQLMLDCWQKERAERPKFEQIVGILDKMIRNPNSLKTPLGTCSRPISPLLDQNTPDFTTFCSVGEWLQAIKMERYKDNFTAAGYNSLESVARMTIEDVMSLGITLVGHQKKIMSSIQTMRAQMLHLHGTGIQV
Chain of Tyrosine-protein kinase Lyn (P07948 2-512 limits assumed): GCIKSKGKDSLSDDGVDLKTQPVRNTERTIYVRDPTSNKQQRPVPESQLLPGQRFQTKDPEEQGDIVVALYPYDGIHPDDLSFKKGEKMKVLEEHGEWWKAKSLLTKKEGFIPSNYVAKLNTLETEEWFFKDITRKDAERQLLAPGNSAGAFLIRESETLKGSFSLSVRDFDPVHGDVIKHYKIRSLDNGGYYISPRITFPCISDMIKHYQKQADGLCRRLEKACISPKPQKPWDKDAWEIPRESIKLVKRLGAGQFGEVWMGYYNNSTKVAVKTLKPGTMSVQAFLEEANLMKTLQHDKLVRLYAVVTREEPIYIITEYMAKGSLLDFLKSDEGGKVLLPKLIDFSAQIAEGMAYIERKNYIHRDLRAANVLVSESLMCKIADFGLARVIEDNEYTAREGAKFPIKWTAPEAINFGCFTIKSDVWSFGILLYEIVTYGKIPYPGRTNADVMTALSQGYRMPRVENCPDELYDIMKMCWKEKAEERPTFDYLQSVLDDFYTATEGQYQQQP
Chain of G protein-coupled receptor kinase 4 (Homo sapiens) (P32298 whole entry, looked up): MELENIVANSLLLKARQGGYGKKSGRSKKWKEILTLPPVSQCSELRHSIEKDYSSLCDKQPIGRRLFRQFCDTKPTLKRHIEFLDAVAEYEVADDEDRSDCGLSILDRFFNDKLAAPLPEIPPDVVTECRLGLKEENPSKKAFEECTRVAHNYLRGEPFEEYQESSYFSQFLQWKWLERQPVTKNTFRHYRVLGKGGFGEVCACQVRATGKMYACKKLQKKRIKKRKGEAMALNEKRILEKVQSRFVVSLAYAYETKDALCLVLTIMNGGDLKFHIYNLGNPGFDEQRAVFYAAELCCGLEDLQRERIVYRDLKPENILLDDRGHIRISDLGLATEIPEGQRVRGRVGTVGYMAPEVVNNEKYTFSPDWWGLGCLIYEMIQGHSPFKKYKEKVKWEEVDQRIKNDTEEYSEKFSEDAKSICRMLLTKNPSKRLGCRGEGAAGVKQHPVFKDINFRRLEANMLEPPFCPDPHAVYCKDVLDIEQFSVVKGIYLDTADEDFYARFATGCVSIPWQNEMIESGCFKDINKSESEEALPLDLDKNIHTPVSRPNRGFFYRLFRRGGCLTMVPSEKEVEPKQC
Chain of Tyrosine-protein kinase JAK1 (P23458 whole entry): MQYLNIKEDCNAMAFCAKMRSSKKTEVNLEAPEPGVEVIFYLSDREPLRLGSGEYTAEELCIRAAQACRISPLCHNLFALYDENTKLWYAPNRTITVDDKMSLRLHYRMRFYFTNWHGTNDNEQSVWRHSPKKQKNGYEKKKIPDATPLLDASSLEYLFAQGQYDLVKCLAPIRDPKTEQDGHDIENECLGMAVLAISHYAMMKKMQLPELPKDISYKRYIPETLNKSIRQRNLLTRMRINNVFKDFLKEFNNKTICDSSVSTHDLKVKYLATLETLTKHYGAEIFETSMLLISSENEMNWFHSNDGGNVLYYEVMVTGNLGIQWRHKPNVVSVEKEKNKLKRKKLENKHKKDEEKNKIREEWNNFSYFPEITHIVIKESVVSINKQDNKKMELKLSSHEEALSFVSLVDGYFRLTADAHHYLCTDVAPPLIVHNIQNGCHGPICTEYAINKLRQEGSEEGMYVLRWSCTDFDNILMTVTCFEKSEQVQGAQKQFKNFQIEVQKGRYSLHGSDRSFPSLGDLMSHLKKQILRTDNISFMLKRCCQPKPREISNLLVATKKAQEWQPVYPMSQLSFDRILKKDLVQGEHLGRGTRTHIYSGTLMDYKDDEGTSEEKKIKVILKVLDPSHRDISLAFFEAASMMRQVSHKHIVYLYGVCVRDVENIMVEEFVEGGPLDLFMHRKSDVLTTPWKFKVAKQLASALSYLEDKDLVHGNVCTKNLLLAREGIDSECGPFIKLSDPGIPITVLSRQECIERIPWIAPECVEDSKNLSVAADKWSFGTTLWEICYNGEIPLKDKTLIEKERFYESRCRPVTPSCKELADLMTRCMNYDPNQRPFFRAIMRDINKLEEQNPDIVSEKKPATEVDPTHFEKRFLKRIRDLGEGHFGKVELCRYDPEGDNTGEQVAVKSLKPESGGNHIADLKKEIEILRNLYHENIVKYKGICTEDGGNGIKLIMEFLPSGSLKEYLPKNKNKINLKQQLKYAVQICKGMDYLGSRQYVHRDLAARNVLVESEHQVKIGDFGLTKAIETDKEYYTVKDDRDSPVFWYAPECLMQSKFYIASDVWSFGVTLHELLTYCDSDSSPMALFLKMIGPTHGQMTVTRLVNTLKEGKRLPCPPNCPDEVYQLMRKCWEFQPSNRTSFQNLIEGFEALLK

Compound: CC[C@@H]1[C@H](F)C(=O)N[C@@H]1COc1nccc2cc(C(N)=O)c(OC)cc12 [ZIMLOVISERTIB]
- % of inhibition [1]: 20.8%

Compound: Cc1cc(F)c(C(=O)Nc2cccc(-c3nncn3C(C)C)n2)cc1-n1cnc(C2CC2)c1
- % of control [2]: 100%

Compound: CCN(CC)CCCCNc1ncc2cc(-c3cc(OC)cc(OC)c3)c(NC(=O)NC(C)(C)C)nc2n1
- % of control [3]: 100%

Compound: Nc1cnc(N2CCc3cc(S(=O)(=O)Nc4c(F)cc(Cl)cc4F)cc(N4CCCC4=O)c32)nc1 [TP-020n]
- % of control [4]: 100%

Compound: C=CC(=O)Nc1cccc(C(=O)Nc2ccc(Nc3cc(-c4[nH]c(SC)nc4C)ccn3)cc2)c1
- % of control ([5]; at 1 µM): 92%
- % of control ([5]; at 5 µM): 83%
- % of control ([6]; at 1 µM): 94%
- % of control ([6]; at 5 µM): 76%

Compound: C=CC(=O)Nc1cc(-n2c(=O)ccc3cnc4ccc(-c5ccc(NS(C)(=O)=O)cc5)cc4c32)ccc1C
- % of control ([7]; at 1 µM): 100%
- % of control ([7]; at 10 µM): 58%
- % of control ([8]; at 1 µM): 100%
- % of control ([8]; at 10 µM): 100%

Compound: CN(C(=O)c1cnn2cccnc12)c1cc2c(cc1N1CCOCC1)C(=O)N(C[C@@H](F)C(C)(C)O)C2
- dTM [9]: 0.1 K
- dTM [10]: 1.8 K

Compound: CNC(=O)Nc1ccc(-c2nc(N3CC4CCC(C3)O4)c3cnn(C4CCC5(CC4)OCCO5)c3n2)cc1
- % of control [11]: 83%

Compound: O=C(NOC[C@H](O)CO)c1ccc(F)c(F)c1Nc1ccc(I)cc1F
- % of control [12]: 80%
